This passage reports MIC results from DBAASP.

Structures are written as SMILES. ≈ marks a conversion by molar mass, not a printed value. Where “and” joins values, the source holds several entries; their conditions need not be identical. Equal entries are not always repeated.

Test systems include Escherichia coli UB1005; Ramulariopsis gossypii; Candida krusei CBS 573; Escherichia coli EC183; Candida albicans CA2761.
Common to all, as to assay: ≥ marks a high value that may be exact or a test limit, other limits are often not marked, values filed in µg/mL are converted to µM
For test [1], the system named is Staphylococcus epidermidis ATCC 12228.
Test [2] has as its system Salmonella enterica subsp. enterica serovar Typhimurium C77-31.
Test [3] has as its system Enterococcus faecalis ATCC 29212.
Test [4] concerns Pseudomonas aeruginosa ATCC 27853.
Test [5] has as its system Salmonella enterica subsp. enterica serovar Pullorum C79-13.
Test [6] relates to Staphylococcus aureus ATCC 43300.
Test [7] relates to Bacillus subtilis CMCC 63501.
For test [8], the system named is Staphylococcus aureus ATCC 29213.
Test [9] relates to Escherichia coli ATCC 25922.
Test [10] deals with Xanthomonas campestris pv. citri.
Test [11] relates to Candida albicans ATCC 90028.
Test [12] deals with Cryptococcus neoformans ATCC 28957.
The subject of test [13] is Bacillus subtilis ATCC 23857.
Test [14] concerns Candida parapsilosis CBS 604.
Test [15] concerns Candida albicans ATCC 10231.
Test [16] concerns Saccharomyces cerevisiae SZMC 0644.
Test [17] concerns Staphylococcus aureus ATCC 25923.
Test [18] deals with Candida albicans CGMCC 2.2086.
For test [19], the system named is Candida tropicalis CGMCC 2.1975.
Test [20] concerns Candida krusei CGMCC 2.1857.
Test [21] relates to Pseudomonas aeruginosa ATCC BAA-1744.
Test [22] has as its system Pseudomonas aeruginosa ATCC 9721.
Test [23] deals with Pseudomonas aeruginosa ATCC 15442.
Test [24] deals with Pseudomonas aeruginosa 1109.
Test [25] has as its system Acinetobacter baumannii ATCC 19606.
Test [26] has as its system Acinetobacter baumannii ATCC BAA-1605.
Test [27] deals with Acinetobacter baumannii NR-9667.
Test [28] has as its system Pseudomonas aeruginosa ATCC 10145.
For test [29], the system named is Pseudomonas aeruginosa ATCC 9027.
Test [30] has as its system Pseudomonas aeruginosa ATCC 25619.
In test [31] the test system is Acinetobacter baumannii ATCC BAA-747.
Test [32] concerns Pseudomonas aeruginosa PAO1.
Test [33] deals with Pseudomonas aeruginosa ATCC 35032.

Take `CC[C@H](C)[C@H](NC(=O)[C@H](CCCN=C(N)N)NC(=O)[C@H](CCCCN)NC(=O)[C@H](Cc1ccccc1)NC(=O)[C@H](CCC(=O)O)NC(=O)[C@H](CCCCN)NC(=O)CN)C(=O)N[C@H](C(=O)N[C@@H](CCCCN)C(=O)N[C@@H](Cc1c[nH]c2ccccc12)C(=O)N1CCC[C@H]1C(=O)N[C@@H](Cc1c[nH]c2ccccc12)C(=O)N[C@@H](Cc1c[nH]c2ccccc12)C(=O)N1CCC[C@H]1C(=O)N[C@@H](Cc1c[nH]c2ccccc12)C(=O)N[C@@H](CCCN=C(N)N)C(=O)N[C@@H](CCCN=C(N)N)C(N)=O)C(C)C` [GKEFKRIVKWPWWPWRR]: the MIC – broadly, the least concentration at which growth counts as inhibited – in test [1] was found to be 8 µM (≈ 18.8 µg/mL); in test [2], 4 µM (≈ 9.42 µg/mL); in [3], 4 µM (≈ 9.42 µg/mL); in test [4], 16 µM (≈ 37.7 µg/mL); in [5], 2 µM (≈ 4.71 µg/mL); against Escherichia coli UB1005, 2 µM (≈ 4.71 µg/mL). Moreover, the minimum inhibitory concentration (MIC) is 2 µM (≈ 4.71 µg/mL) in test [6]; 4 µM (≈ 9.42 µg/mL) in [7]; 4 µM and 8 µM in test [8].

For the compound `CC[C@H](C)[C@H](NC(=O)[C@H](Cc1ccccc1)NC(=O)[C@@H](NC(=O)[C@H](CCC(N)=O)NC(=O)[C@H](Cc1ccc(O)cc1)NC(=O)[C@H](CCCN=C(N)N)NC(=O)[C@@H](NC(=O)[C@H](CC(C)C)NC(=O)[C@H](CCCCN)NC(=O)[C@H](CCC(N)=O)NC(=O)[C@H](CC(C)C)NC(=O)[C@H](CCC(=O)O)NC(=O)[C@H](CCCCN)NC(=O)[C@H](Cc1ccccc1)NC(=O)[C@H](CC(C)C)NC(=O)[C@H](CC(C)C)NC(=O)CN)[C@@H](C)CC)[C@@H](C)CC)C(=O)NCC(=O)N[C@@H](CCCCN)C(N)=O` [GLLFKELQKLIRYQIFIGK], the MIC in [9] is 26.7 µM (≈ 61.5 µg/mL); in [10] it was no less than 128 µM; in test [11], no less than 64 µM; in test [12] it was no less than 64 µM; in test [4], 128 µM (≈ 295 µg/mL); in test [13] it was 16 µM (≈ 36.9 µg/mL). Further, the MIC in the test with Ramulariopsis gossypii was no less than 64 µM.

Regarding `CC[C@H](C)[C@H](N)C(=O)N[C@@H](C)C(=O)N[C@H](C(=O)N[C@@H](CO)C(=O)N1CCC[C@H]1C(=O)N[C@@H](Cc1ccc(O)cc1)C(=O)N[C@@H](Cc1ccc(O)cc1)C(=O)N[C@@H](C)C(=O)N[C@H]1CSSC[C@@H](C(=O)N2CCC[C@H]2C(=O)O)NC(=O)[C@H](CC(N)=O)NC1=O)[C@@H](C)O` [IATSPYYACNCP], the MIC in test [14] was no less than 76.8 µM; in the test with Candida krusei CBS 573, no less than 76.8 µM; in [15] it was greater than 76.8 µM; in test [16], no less than 76.8 µM.

Take `CC[C@H](C)[C@H](NC(=O)[C@H](Cc1c[nH]c2ccccc12)NC(=O)[C@H](CCCCN)NC(=O)[C@H](CC(C)C)NC(=O)[C@@H](NC(=O)[C@H](CCCCN)NC(=O)CNC(=O)[C@@H](NC(=O)[C@H](CCCCN)NC(=O)[C@H](CCCCN)NC(=O)[C@H](CC(C)C)NC(=O)[C@H](CCCN=C(N)N)NC(=O)[C@H](CCCCN)NC(=O)[C@H](CCCN=C(N)N)NC(=O)[C@@H](NC(=O)[C@H](CCCCN)NC(=O)[C@H](CCCCN)NC(=O)[C@@H](N)CCCN=C(N)N)[C@@H](C)O)[C@@H](C)CC)C(C)C)C(N)=O` [RKKTRKRLKKIGKVLKWI]: the minimum inhibitory concentration (MIC) in [9] turned out to be 2 µM (≈ 4.56 µg/mL); in [1], 4 µM (≈ 9.12 µg/mL); in test [17], 8 µM (≈ 18.2 µg/mL); in [18], 16 µM (≈ 36.5 µg/mL); in test [2] it was 2 µM (≈ 4.56 µg/mL); in test [19], 2 µM (≈ 4.56 µg/mL). The MIC in [20] worked out at 4 µM (≈ 9.12 µg/mL); in the test with Escherichia coli EC183, 1 µM (≈ 2.28 µg/mL); in the test on Escherichia coli UB1005 it was 2 µM (≈ 4.56 µg/mL); in test [7], 1 µM (≈ 2.28 µg/mL); in the test on Candida albicans CA2761 it was 8 µM (≈ 18.2 µg/mL); in test [8], 4 µM (≈ 9.12 µg/mL).

`CC[C@H](C)[C@H](NC(=O)[C@H](Cc1c[nH]c2ccccc12)NC(=O)[C@H](CCCCN)NC(=O)[C@H](CC(C)C)NC(=O)[C@@H](NC(=O)[C@H](CCCCN)NC(=O)CNC(=O)[C@@H](NC(=O)[C@H](CCCCN)NC(=O)[C@H](CCCCN)NC(=O)[C@H](CC(C)C)NC(=O)[C@H](CCCN=C(N)N)NC(=O)[C@H](CCCCN)NC(=O)[C@H](CCCN=C(N)N)NC(=O)[C@@H](NC(=O)[C@H](CCCCN)NC(=O)[C@H](CCCCN)NC(=O)[C@H](CCCN=C(N)N)NC(=O)[C@H](CC(C)C)NC(=O)[C@H](CCCN=C(N)N)NC(=O)[C@@H](N)CCCN=C(N)N)[C@@H](C)O)[C@@H](C)CC)C(C)C)C(N)=O` [RRLRKKTRKRLKKIGKVLKWI]: the minimum inhibitory concentration (MIC) in test [9] came out at 2 µM (≈ 5.41 µg/mL); in test [1] it was 4 µM (≈ 10.8 µg/mL); in test [17], 4 µM (≈ 10.8 µg/mL); in test [18] it was 8 µM (≈ 21.6 µg/mL); in test [2] it was 1 µM (≈ 2.7 µg/mL); in test [19], 1 µM (≈ 2.7 µg/mL). In addition, the MIC in test [20] amounted to 2 µM (≈ 5.41 µg/mL); in the test with Escherichia coli EC183, 1 µM (≈ 2.7 µg/mL); in the test with Escherichia coli UB1005, 2 µM (≈ 5.41 µg/mL); in [7], 1 µM (≈ 2.7 µg/mL); against Candida albicans CA2761, 8 µM (≈ 21.6 µg/mL); in [8], 4 µM (≈ 10.8 µg/mL).

Regarding `CC[C@H](C)[C@H](NC(=O)[C@H](CCCCN)NC(=O)[C@H](CCCCN)NC(=O)[C@H](Cc1c[nH]c2ccccc12)NC(=O)[C@@H](NC(=O)[C@H](CCCCN)NC(=O)[C@@H](NC(=O)[C@H](CCCN=C(N)N)NC(=O)[C@H](CCCN=C(N)N)NC(=O)[C@H](CCCCN)NC(=O)[C@@H](N)Cc1c[nH]c2ccccc12)[C@@H](C)CC)[C@@H](C)CC)C(=O)N[C@@H](CCCN=C(N)N)C(=O)O` [WKRRIKIWKKIR], the MIC in test [21] is no less than 256 µM; in test [22] it was no less than 256 µM; in [23], no less than 256 µM; in test [24], no less than 128 µM; in [25], greater than 256 µM; in test [26] it was no less than 256 µM. For the same compound, the MIC in test [27] is no less than 256 µM; in [28], no less than 256 µM; in test [4] it was 256 µM (≈ 438 µg/mL); in test [29], greater than 256 µM; in [30], no less than 256 µM; in test [31], no less than 256 µM. The minimal inhibitory concentration (MIC) in test [32] is greater than 256 µM; in test [33] it was no less than 256 µM.
